Assay results reported in patent US10100011B2, “Pentadienoyl piperidine derivative and use thereof” (Industry-Academic Cooperation Foundation, Yonsei University, priority 2014, dated 2018).

Experiments:
[1] = test system: genes related to adipose tissue generation and thermogenesis in visceral fat tissue; assay: Gene (RT-PCR) and protein (Western blotting) expression in visceral (epididymal) fat tissue of mice; format: in vivo, mouse; details: compound in high-fat diet
Procedure: 1 ml of a TRIzol solution per 0.1 g of epididymal fat tissue was added to the pulverized tissue, followed by centrifuging at 4° C. and 12,000×g for 10 minutes. A supernatant was transferred into a new tube and then 200 μl of chloroform was added thereto, followed by vortexing. This process was repeated twice and then a supernatant was transferred into a new tube. Subsequently, isopropanol and the supernatant were mixed in a ratio of 1:1 and strongly shook ten times, followed by standing at room temperature for 10 minutes. Subsequently, centrifugation was carried out at 12,000×g and 4° C. for 10 minutes, followed by removing a supernatant and adding 1 ml of 70% ethanol to the remaining precipitate. Subsequently, centrifugation was carried out at 7,500×g and 4° C. for five minutes. Ethanol was removed and then the tube containing an RNA precipitate was dried at room temperature for five minutes. The dried RNA pellet was dissolved in nuclease free water. The concentrations of the extracted RNA samples were measured at wavelengths of 260 nm and 280 nm by means of a UV/VIS spectrophotometer (Beckman Coulter, DU730). In addition, the extracted RNA samples were electrophoresed on an agarose gel to confirm the quality of the RNA samples.
The RNA samples extracted from epididymal fat tissue were subjected to reverse transcription using oligo dT primers and the Superscript reverse transcription enzyme (GIBCO BRL, Gaithersburg, Md., USA), thereby synthesizing cDNAs. Each of the synthesized cDNAs was used as a template and 5′ and 3′ flanking sequences of cDNA of each of genes to be amplified were used as primers, thereby performing PCR. 1 μl of each of amplified PCR products was electrophoresed on a 1% agarose gel and a DNA band was observed.
A predetermined amount of visceral fat or liver tissue was homogenized with liquid nitrogen and a lysis buffer in a mortar and then centrifuged at 13,000 rpm and 4° C. for 20 minutes. Subsequently, a middle layer was collected and subjected to protein quantification according to the Bradford method. 50 μg of a protein was electrophoresed on an SDS polyacryamide gel and then electro-blotted on hyperfilm PVDF. A reaction was carried out using a corresponding antibody and detection was performed using ECL.

[2] = target: T1, human recombinant SIRT1 enzyme (Homo sapiens, UniProt Q96EB6); assay: SIRT1 activity measurement (SIRT1 Fluorometric Drug Discovery Kit); format: biochemical
T1 construct: purchased ENZO Life Sciences Inc., NY, USA BML-AK555
T1 sequence (Q96EB6 1-747): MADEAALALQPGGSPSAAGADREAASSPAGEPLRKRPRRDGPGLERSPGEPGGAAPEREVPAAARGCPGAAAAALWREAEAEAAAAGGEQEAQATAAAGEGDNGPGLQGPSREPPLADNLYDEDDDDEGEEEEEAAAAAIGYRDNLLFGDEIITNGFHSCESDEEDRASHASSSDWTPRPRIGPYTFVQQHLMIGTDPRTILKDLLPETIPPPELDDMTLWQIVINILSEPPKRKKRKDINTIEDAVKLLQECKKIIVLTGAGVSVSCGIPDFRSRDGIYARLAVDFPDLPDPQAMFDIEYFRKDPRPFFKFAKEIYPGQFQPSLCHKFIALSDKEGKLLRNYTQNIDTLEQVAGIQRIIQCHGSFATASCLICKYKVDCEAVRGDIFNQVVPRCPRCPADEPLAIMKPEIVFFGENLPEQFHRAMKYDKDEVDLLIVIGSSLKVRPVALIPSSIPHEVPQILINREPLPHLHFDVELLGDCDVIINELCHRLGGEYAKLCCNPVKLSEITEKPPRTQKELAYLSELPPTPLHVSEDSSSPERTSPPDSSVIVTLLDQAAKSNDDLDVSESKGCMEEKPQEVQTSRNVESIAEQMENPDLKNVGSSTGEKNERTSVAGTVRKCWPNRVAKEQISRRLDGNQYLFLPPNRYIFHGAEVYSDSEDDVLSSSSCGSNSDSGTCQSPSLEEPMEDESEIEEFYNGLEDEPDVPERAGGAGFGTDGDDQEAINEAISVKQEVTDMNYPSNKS
Procedure: To analyze SIRT1 activity in a test tube, a deacetylation degree of acetylated lysine included in a substrate was measured using an SIRT1 Fluorometric Drug Discovery Kit (BML-AK555, ENZO Life Sciences Inc., NY, USA). 0.067 U/μl of a human recombinant SIRT1 enzyme and a test substance were mixed in a 96-well plate and reacted at 37° C. for 10 minutes. Subsequently, 167 μM substrate [379th to 382nd amino acid peptide of human p53, Arg-His-Lys-Lys(Ac)] and 1667 μM NAD^+ were added thereto, followed by reacting at 37° C. for 30 minutes. To stop the reaction of SIRT1, 50 μL of a developer including 2 mM nicotinamide was added, followed by reacting at 37° C. for 30 minutes. Chromophoric fluorescence intensity was measured at 360 nm excitation and 460 nm emission.

[3] = RT-PCR, levels similar to Chow group

SMILES: CSc1ccc(/C=C/C=C/C(=O)N2CCCCC2)cc1 [LJ-2501, (2E,4E)-5-(4-(methylthio)phenyl)-1-(piperine-1-yl)penta-2,4-diene-1-one]
- expression levels of NRF-1, COX2 and TFAM in visceral fat tissue ([1]; RT-PCR): increasing
- gene expression levels of PGC-1α, SIRT1 and UCP1 in visceral adipose tissue compared to HFD [1, 3]: increased
- mRNA expression of C/EBPα, PPARγ2 and target genes (CD36, FAS, leptin) in epididymal fat tissue compared to HFD [1, 3]: reduced
- phosphorylation level of CREB proteins in visceral adipose tissue ([1]; Western blotting): increased
- Vmax value of SIRT1 ([2]; in presence of 600 μM compound): without change
- concentration at which SIRT1 activity was highest ([2]; increasing concentration of compound, human recombinant SIRT1): 600 µM
